Results from paper PMC13489962, “Small-molecule modulation of β-arrestins” (Nature, 2026).
Values joined by “and” are separate entries in the source; they are usually repeats but may differ in a detail not shown here. Identical values can stand only once. “Also recorded” adds a separate entry of the source.

Assays:
βARR1 = molecular target: T1, βARR1 (Rattus norvegicus, UniProt P29066); experiment: ITC binding to βARR1; conditions: for Kd: one-site model
T1 construct: βARR1 or βARR2 construct, with their C terminus truncated (at amino acid 393 or 394, respectively); GST (pGEX4T1) (N, cleaved yes); made in house; host or cells: E. coli BL21 (DE3) pLysS
Description: (§1) The expression and purification of β-arrestins have been described previously[44],[62]–[64]. In brief, E. coli BL21 (DE3) pLysS cells (New England Biolabs: C2527I) carrying pGEX4T1-Rattus norvegicus βARR1 or βARR2 construct, with their C terminus truncated (at amino acid 393 or 394, respectively), were cultured in Terrific Broth (Teknova) medium at 37 °C. After OD600 reached 0.6–0.8, the cells were induced with 0.1 mM isopropyl-β-D-thiogalactopyranoside (IPTG) at 18 °C overnight. Bacteria were collected by centrifugation (4,000 rpm), and cell pellets were resuspended in lysis buffer (20 mM HEPES, pH 8, 150 mM NaCl, 10% glycerol, 1 mM EDTA, 0.2 mM dithiothreitol (DTT), 1 mM phenylmethylsulfonyl fluoride, and 1 mM benzamidine) at 4 °C for 1 h. Cell suspensions were sonicated, centrifuged (14,000 rpm, 30 min, 4 °C), and the supernatant was loaded onto pre-equilibrated glutathione–agarose resin (GoldBio). After 3 h of binding at 4 °C, the beads were washed, and thrombin was added for overnight cleavage. The proteins were further purified by anion exchange chromatography followed by size-exclusion chromatography using a Superdex 200 Increase 10/300 GL column on an ÄKTA FPLC system (GE Healthcare). Eluted fractions were analysed by SDS–PAGE, pooled, concentrated using 30 kDa MWCO Amicon Ultra-15 Centrifugal Filter devices, flash-frozen in liquid nitrogen, and stored in aliquots at −80 °C. The same rat βARR1 constructs with mutations (L129A, L129S, L129G, P131A, P133A, E134A, D135A, K138A, C140A, Y249A, C251A, E283A, K284A and R285A) were generated and purified in a similar manner. Recombinant Gα subunits (Gαs, Gαq and Gαi) were purified as GST fusion proteins using glutathione–agarose affinity chromatography as previously described. The heterotrimeric Gs protein complex, composed of Gαs, Gβ1 and Gγ2 subunits, was expressed in Sf9 cells using the baculovirus expression system and purified as previously described. M2R expression, purification and reconstitution into high-density lipoprotein (HDL) particles were performed as previously described. ERK2, SRC, p38α and JNK3 kinases were expressed and purified using previously established protocols[6],[16]. Protein concentrations for each protein were determined by ultraviolet absorption at 280 nm and extinction coefficients estimated using the ExPASy ProtParam tool[67].
(§2) ITC measurements were performed on a MicroCal iTC200 system at 25 °C. Prior to ITC experiments, all proteins (βARR1, βARR2 or βARR1 mutants) were extensively dialysed against 20 mM HEPES (pH 7.4), 100 mM NaCl, and 3 μM TCEP. Protein concentrations were determined by spectrophotometry at 280 nm, using extinction coefficients calculated from each protein sequence via the ProtParam program. The dialysis buffer was used to dilute DMSO stock solutions of β-arrestin small-molecule modulators to their final concentrations for measurements. For each ITC experiment, β-arrestin modulators (Cmpd-5 at 350 μM, Cmpd-46 at 450 μM, and Cmpd-64 at 450 μM) were loaded into the syringe and titrated into the calorimetric cell containing βARR1, βARR1 mutants or βARR2 (at about 30–40 μM, depending on the protein and experiment). Additional ITC experiments were also performed using purified GST-fused Gα subunits (Gαs, Gαq and Gαi; about 30 μM) and Gαiβγ heterotrimer (about 30 μM). Gα subunits were prepared in the same buffer (20 mM HEPES, pH 7.4, 100 mM NaCl, 3 μM TCEP), whereas the Gαiβγ heterotrimer was maintained in buffer supplemented with 0.05% DDM and 10 μM GDP, with matched DMSO carrier conditions. Modulators (300 μM) or corresponding DMSO controls were loaded and titrated as described above. The reference cell was filled with distilled water. In all experiments, the titration sequence typically consisted of an initial 0.4 μl injection, followed by 19 injections of 2 μl each, with a 180-s interval between injections to allow thermal power to return to baseline. […]

βARR2 = molecular target: T2, βARR2 (Rattus norvegicus, UniProt P29067); experiment: ITC binding to βARR2; conditions: for stoichiometry N, βARR2 / Kd: ITC; for Kd: 25 °C, one-site model; for β-arrestin isoform preference: from ITC
T2 construct: βARR1 or βARR2 construct, with their C terminus truncated (at amino acid 393 or 394, respectively); GST (pGEX4T1) (N, cleaved yes); made in house; host or cells: E. coli BL21 (DE3) pLysS
Description: as §1, §2

[1] = tested on: AT1R desensitization (Ca2+); experiment: Ca2+ mobilization in HEK293 cells stably expressing AT1R; type: cell-based, human; conditions: 10 μM, 30 min, ANGII 30 pM
Description: Intracellular (Ca^2+) release was measured using the FLIPR Calcium 6 assay kit with a FlexStation 3 microplate reader, following the manufacturer’s instructions (Molecular Devices) and as described previously. In brief, HEK293 cells stably expressing human angiotensin II type 1 receptor (AT1R), parental HEK293 cells transiently expressing AT1R, or HEK293 CRISPR–Cas9 βARR1/2-knockout cells transiently expressing AT1R were seeded in poly-D-lysine-coated, black 96-well assay plates at a density of 40,000 cells per well and incubated for 24 h. On the day of the experiment, cell plates were loaded with FLIPR Calcium 6 reagents and treated with β-arrestin small-molecule modulators (10 μM) or vehicle (DMSO) for 30 min. After establishing basal fluorescence (F0), the cells were treated with the agonist ANGII (30 pM for stably expressing AT1R or 120 pM for transiently expressing AT1R) while fluorescence intensity (F) was monitored in real time. These sub-maximal ANGII concentrations were empirically optimized to elicit moderate, temporally resolved Ca^2+ transients, allowing sufficient time for β-arrestin-mediated desensitization to develop prior to the peak response. The complete Ca^2+ transient profile was quantified by calculating the AUC over time. AUC values were normalized to the response to ANGII alone (set as 100%) to compare the effects of modulators relative to the agonist-alone control.

T1 sequence (P29066 1-393): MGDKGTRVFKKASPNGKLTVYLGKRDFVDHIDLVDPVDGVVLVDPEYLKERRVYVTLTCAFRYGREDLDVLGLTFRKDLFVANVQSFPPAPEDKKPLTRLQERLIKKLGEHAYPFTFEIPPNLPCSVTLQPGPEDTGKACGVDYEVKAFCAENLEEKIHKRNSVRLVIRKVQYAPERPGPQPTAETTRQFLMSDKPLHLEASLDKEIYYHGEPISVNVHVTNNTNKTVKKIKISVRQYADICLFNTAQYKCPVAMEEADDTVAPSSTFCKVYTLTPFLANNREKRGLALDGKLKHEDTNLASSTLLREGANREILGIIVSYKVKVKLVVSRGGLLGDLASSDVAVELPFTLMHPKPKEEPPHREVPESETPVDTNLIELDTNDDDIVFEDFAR
T2 sequence (P29067 1-394): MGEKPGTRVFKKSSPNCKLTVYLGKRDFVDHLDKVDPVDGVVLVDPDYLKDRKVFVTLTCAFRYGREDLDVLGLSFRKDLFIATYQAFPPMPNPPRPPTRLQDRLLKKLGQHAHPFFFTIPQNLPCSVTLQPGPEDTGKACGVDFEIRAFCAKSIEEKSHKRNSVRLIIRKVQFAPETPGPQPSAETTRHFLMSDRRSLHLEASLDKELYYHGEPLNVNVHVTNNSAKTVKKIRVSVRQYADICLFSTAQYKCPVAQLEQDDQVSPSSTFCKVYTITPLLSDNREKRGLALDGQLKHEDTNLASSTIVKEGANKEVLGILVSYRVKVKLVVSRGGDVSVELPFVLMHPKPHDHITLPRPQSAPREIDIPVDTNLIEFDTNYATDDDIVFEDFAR

Compound	stoichiometry N, βARR1 (βARR1)	ΔH, βARR1 wild type (βARR1; 25 °C)	Kd (βARR1; 25 °C)	stoichiometry N, βARR2 (βARR2)	Kd (βARR2)	β-arrestin isoform preference (βARR2)	ANGII-induced Ca2+ response (AUC) relative to DMSO (set to 100%) [1]
C=C1C(=O)[C@]23[C@H](O)[C@H]1CC[C@H]2[C@@]12CO[C@]3(O)[C@@H](O)[C@@H]1C(C)(C)CC[C@@H]2O [Cmpd-5, (1S,4aR,5S,6S,6aR,9S,11aS,11bS,14R)-1,5,6,14-tetrahydroxy−4,4-dimethyl-8-methylenedecahydro-1H-6,11b-(epoxymethano)-6a,9-methanocyclohepta[a]naphthalen-7(8H)-one]	1	-13.4 kcal/mol	~0.4 µM and 0.362 µM	0.84	0.563 ± 0.045 µM	bound both isoforms comparably; also recorded: bound each isoform similarly	279%
C=C1C(=O)C2=CC1CCC(=O)C1(C)CCC(OCC)C(C)(C)C1CC2O (stereo not drawn) [Cmpd-46, (Z)-3-ethoxy-6-hydroxy-4,4,13a-trimethyl-9-methylene-1,2,3,4,4a,5,6,9,10,11,12,13a-dodecahydro-7,10-(metheno)benzo[11]annulene-8,13-dione]	1.2	–	1.34 ± 0.74 µM	0.94	0.753 ± 0.054 µM	slight βarr2 preference; also recorded: modest βARR2 preference	356%
C=C1C(=O)OC2CC3(C)OC3CCC(C)=CC(OC(C)=O)C12 (stereo not drawn) [Cmpd-64, (Z)-4,10a-dimethyl-7-methylene-8-oxo-1a,2,3,6,6a,7,8,9a,10,10a decahydrooxireno[2’,3’:8,9]cyclodeca[1,2-b]furan-6-yl acetate]	0.73	–	1.42 ± 0.2 µM	0.91	0.207 ± 0.054 µM	–	490%
